The test system of data set [1] is methicillin-resistant S. aureus (BAA 41). As to the kind of experiment: MIC assay (broth microdilution, CLSI), without light. In kind it is cell-based. The note with it: Staphylococcus aureus. The procedure:
(§1) The MIC assays of TPA-1 were conducted according to the broth microdilution methods described in the Clinical and Laboratory Standards Institute (CLSI) standard. A single colony of S. aureus (ATCC 29213), methicillin-resistant S. aureus (BAA 41), or P. aeruginosa (ATCC 27853) on an LB agar plate was picked and suspended in Mueller–Hinton Broth (MHB). The bacterial culture was grown overnight at 37 °C. The next day, the bacteria culture was diluted 100 times in fresh MHB and grown to the mid log phase. Bacteria in the mid log phase were further diluted to 5 × 10^6 CFU/mL in cation-adjusted MHB (S. aureus) or MHB (P. aeruginosa). Ten μL of the diluted bacteria were added to a 96-well plate containing 90 μL of serial diluted TPA-1 in the corresponding medium. The plate was incubated overnight at 37 °C. The MICs of the TPA compounds were the concentrations at which no apparent bacteria were observed by the naked eye. Different concentrations of LTA were also added to examine the change in MIC values of TPA-1 against S. aureus. The experiments were conducted in triplicate.

The subject of data set [2] is P. aeruginosa (ATCC 27853). Described as above. In kind it is cell-based. The note with it: Pseudomonas aeruginosa, ATCC27853, light or radiation study. The method, then:
as §1

Another data set relates to S. aureus (ATCC 29213). Described as above. The note with it: Staphylococcus aureus, ATCC29213, light or radiation study; read-out: MIC against ATCC 29213 Staphylococcus aureus without light irradiation. In kind it is cell-based. The method, then: as §1
A short description of data set [3]: Cytotoxicity (MTT) assay against HFF-1 cells. Format: cell-based. The following applies: human, no irradiation, read-out: 50% cytotoxicity concentration (CC50) against HFF-1 cells. The procedure: The cytotoxicity of TPA-1, TPA-0, and TPA-NC-1 against HFF-1 cells was evaluated using the 3-(4,5-dimethylthiazol-2-yl)-2,5-diphenyltetrazolium bromide (MTT) assay kit from ThermoFisher Scientific. In general, HFF-1 cells (MEM, 10% FBS, and 1% penicillin-streptomycin) were seeded in a 96-well plate with a density of 3000 cells/well overnight at 37 °C with 5% CO2. Then, the cells were treated with different concentrations of compounds for 24 h. MTT (10 μL, 5 mg/mL) was added to the medium, and the cells were further incubated for 3 h. The medium was then replaced by DMSO (100 μL). After gently shaking the plate for 30 s, the optical density of the solutions at 570 nm was measured by a BMG Labtech CLARIOstar microplate reader. The cell viability was calculated as (ODcompound – ODDMSO)/(ODmedium - ODDMSO) × 100% where ODcompound, ODmedium, and ODDMSO are the optical densities of the treated cell, nontreated cells, and DMSO at 570 nm, respectively. The experiment was conducted in triplicate. The CC50 values were calculated using GraphPad Prism 8.

The next data set concerns the target T1, S. aureus DNA gyrase (Staphylococcus aureus, UniProt P0A0K8+P20831).
T1 construct: purchased Inspiralis
The data set is described as follows: S. aureus DNA gyrase supercoiling inhibition assay. Format: biochemical. The note with it: relaxed pBR322, 37 °C, 30 min, agarose gel. The procedure: The assay was conducted using an S. aureus gyrase supercoiling assay kit from Inspiralis. In general, relaxed bacterial plasmid (pBR322), S. aureus gyrase, and different concentrations of TPA-1 were mixed and incubated at 37 °C for 30 min. The mixtures were then quenched and subjected to electrophoresis (1% agarose gel, 75 V, 2 h). The gel image was captured with the Bio-Rad ChemiDoc imaging system.

The next data set deals with S. aureus biofilm. As to the kind of experiment: Photodynamic eradication of biofilm bacteria. Format: cell-based, Staphylococcus aureus. The note with it: light irradiation at 600 nm for 45 min. The method, then:
For biofilm bacteria, overnight culture of S. aureus or P. aeruginosa was diluted to 1 × 10^5 CFU/mL in TSB (with 1% glucose). Portion of 100 μL of the diluted bacteria culture was added to the wells of a 96-well plate. The plate was incubated under darkness for 24 h at 37 °C. Then, the planktonic bacterial suspensions were removed from the wells. The biofilms were washed with PBS (3 times) to remove any remaining planktonic bacteria. Different concentrations of TPA-1 were dissolved in PBS. TPA-1 solution was added to the biofilms (120 μL for S.aureus, 150 μL for P.aeruginosa). After 20 min of incubation under darkness at 30 °C, the biofilms were kept in the dark or irradiated by 600 nm light (60 mW/cm^2) for 15, 30, and 45 min. After that, the TPA-1 solution was replaced by 120 μL of PBS. The biofilm was then suspended in PBS by scratching, followed by sonication (5 min, ≤42 kHz) and vortex (5 min, 950 rpm). The number of viable bacteria was determined by the plate counting method. All experiments were carried out in triplicate.

The next data set concerns MRSA (ATCC 43300). As to the kind of experiment: Wound infection mouse model, MRSA biofilm. In kind it is in vivo. The following applies: mice, topical 90 μM, 600 nm 15 min, every 24 h for 4 days (TPA-1 + L). The method, then:
All in vivo experiments were approved by the Department of Science and Technology of Zhejiang Province (SYXK(Zhejiang)2021-0043). Female BALB/c mice (10–12 weeks old) were kept in 12 h light and 12 h dark cycle with access to free food and water for 7 days before and throughout the experiment. The backs of the mice were shaved and disinfected with iodine. A full-thickness circular wound (7 mm in diameter) was then created at the back of the mice. The mice were allowed to recover for 24 h after surgery to prevent sepsis.[65] Ten μL of 1× 10^8 CFU/mL MRSA (ATCC 43300) or P. aeruginosa (ATCC 27853) in saline was added to the wound. The wound was covered with an adhesive dressing for 24 h of infection. Next, the mice were randomly divided into four groups: (1) 50 μL TPA-1 (90 μM) with 600 nm light irradiation (60 mW/cm^2) for 15 min, (2) 50 μL TPA-1 (90 μM) in dark, (3) 50 μL saline with 600 nm light irradiation (60 mW/cm^2) for 15 min, and (4) 50 μL saline in dark. For light irradiation groups, TPA-1 and saline were incubated on the wound for 10 min before irradiation. The treatment was sustained for 4 days. The wound size and body weight of the mice were recorded every day. On day 6, the mice were euthanatized, and the wound tissue was collected. […] The other half of the tissue was homogenized, and the number of viable bacteria was measured by the plate counting method.

Where two headings read alike, the source gives them in different places.

T1 sequence (P20831 whole entry): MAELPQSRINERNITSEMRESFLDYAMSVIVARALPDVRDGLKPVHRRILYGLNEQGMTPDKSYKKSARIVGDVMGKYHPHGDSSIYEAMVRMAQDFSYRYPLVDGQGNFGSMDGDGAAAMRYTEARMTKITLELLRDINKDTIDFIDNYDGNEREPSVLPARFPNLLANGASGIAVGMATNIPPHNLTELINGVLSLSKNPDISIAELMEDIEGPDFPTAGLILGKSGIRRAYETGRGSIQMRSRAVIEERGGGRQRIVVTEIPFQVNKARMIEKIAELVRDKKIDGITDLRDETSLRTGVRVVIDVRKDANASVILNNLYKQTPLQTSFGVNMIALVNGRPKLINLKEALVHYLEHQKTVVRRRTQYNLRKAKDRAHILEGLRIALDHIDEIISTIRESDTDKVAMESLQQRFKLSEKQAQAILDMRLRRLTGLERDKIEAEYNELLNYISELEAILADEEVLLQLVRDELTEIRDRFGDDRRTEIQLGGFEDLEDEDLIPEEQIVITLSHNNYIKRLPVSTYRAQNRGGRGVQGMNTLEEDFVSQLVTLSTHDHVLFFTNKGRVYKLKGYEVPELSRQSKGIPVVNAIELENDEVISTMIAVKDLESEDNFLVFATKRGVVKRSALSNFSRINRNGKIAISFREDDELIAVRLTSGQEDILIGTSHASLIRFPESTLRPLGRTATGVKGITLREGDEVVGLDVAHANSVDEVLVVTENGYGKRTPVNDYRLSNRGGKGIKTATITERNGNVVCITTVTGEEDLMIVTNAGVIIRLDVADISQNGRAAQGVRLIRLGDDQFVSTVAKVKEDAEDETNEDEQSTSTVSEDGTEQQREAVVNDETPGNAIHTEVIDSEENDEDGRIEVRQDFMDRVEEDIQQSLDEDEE
T1 sequence (P0A0K8 whole entry): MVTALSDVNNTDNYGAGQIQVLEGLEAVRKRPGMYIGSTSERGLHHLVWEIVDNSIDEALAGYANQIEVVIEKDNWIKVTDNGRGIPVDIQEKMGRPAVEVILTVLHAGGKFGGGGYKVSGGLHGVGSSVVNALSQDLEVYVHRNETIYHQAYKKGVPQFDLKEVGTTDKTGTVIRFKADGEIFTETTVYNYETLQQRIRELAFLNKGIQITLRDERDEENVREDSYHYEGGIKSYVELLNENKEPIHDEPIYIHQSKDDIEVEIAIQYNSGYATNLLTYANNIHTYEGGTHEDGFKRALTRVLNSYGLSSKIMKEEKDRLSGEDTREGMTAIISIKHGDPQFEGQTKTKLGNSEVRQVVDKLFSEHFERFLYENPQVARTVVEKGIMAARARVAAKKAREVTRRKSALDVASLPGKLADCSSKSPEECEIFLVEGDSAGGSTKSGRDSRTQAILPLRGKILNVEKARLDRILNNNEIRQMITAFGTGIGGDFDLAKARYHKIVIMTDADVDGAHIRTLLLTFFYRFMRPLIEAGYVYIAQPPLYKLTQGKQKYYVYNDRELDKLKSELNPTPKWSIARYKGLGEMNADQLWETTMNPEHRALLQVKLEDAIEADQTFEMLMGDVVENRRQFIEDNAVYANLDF

Turning to `C#CCC[n+]1c(/C=C/c2ccc(-c3ccc(N(c4ccc(OCCC[N+](C)(C)C)cc4)c4ccc(OCCC[N+](C)(C)C)cc4)cc3)s2)sc2ccccc21.[Br-].[Br-].[Br-]` [TPA-1], the MIC (commonly the smallest concentration in the dilution series that meets the test's criterion for growth inhibition) was 3.12 µM in data set [1] (ATCC BAA-41 / BAA-41, light or radiation study, read-out: MIC against ATCC BAA41 Methicillin-resistant Staphylococcus aureus without light irradiation); 3.12 µM in data set [1] (BAA41, light or radiation study, read-out: MIC against methicillin-resistant S. aureus (BAA 41)); 100 µM in data set [2] (read-out: MIC against ATCC 27853 Pseudomonas aeruginosa without light irradiation); greater than 100 µM in data set [2] (without light irradiation, read-out: MIC against P. aeruginosa (ATCC 27853)); 3.12 µM with S. aureus (ATCC 29213). The CC50 at 24 h in data set [3] came out at 260 ± 40 µM. Also, the “concentration at which the supercoiled DNA band completely disappears” value at S. aureus DNA gyrase worked out at 25 µM. Moreover, the “S. aureus biofilm log CFU/mL reduction” value with S. aureus biofilm was determined as 1.18 ± 0.05 log CFU/mL. Further, the “S. aureus in the biofilm eradicated” value with S. aureus biofilm was 92% ± 3%. Further, the “MRSA eradicated in infected tissues” value in the data set on MRSA (ATCC 43300) is 96% ± 3%. Besides, in the data set with MRSA (ATCC 43300), the “MRSA log (CFU/mg tissue) reduction” value is 1.4 ± 0.6 log (CFU/mg tissue).

The record behind these values is publication PMC12035805, “A Water-Soluble Aggregation-Induced Emission Photosensitizer with Intrinsic Antibacterial Activity as an Antiplanktonic and Antibiofilm Therapeutic Agent” (Journal of Medicinal Chemistry, 2025).
